# Tests used:
# [1] = system: rat fibroblast cell line #3B; assay: Cell growth assay, HSV1-TK expressing 3B cells; assay type: cell-based
# Source text: To examine the effect on cellular DNA replication, the rat fibroblast cell line #3B (see Pfahl, et al. Proc. UCLA Symp. Conf. Steroid Hormone Action, ed. Ringold, G. (Liss, N.Y.), Vol. 75:161-168 (1987) that stably expresses the glucocorticoid inducible MTV-HSV1-TK gene, was used. Addition of Dex to these cells leads to a 50-fold increase in HSV1-TK activity. The effect of the drugs on the 3B cells was compared to the one obtained on the control rat 208 fibroblast cell line (see Quade, K. (1979) in Virology, 98:461-465 (1979), a cell line not expressing HSV1-TK). The experiments were performed by seeding cells at low density (3×10^4) in Dulbecco media containing 10% FCS. Cells were incubated with varying concentrations of drug placed in the media 12 hours after the cells were plated either in the presence or in the absence of 10^−7 M Dexamethasone. After a total period of 72 hours, viable cells were recognized by Trypan blue exclusion. Cell numbers were determined with a Neubauer Hemocytometer. The efficacy of the drugs was monitored as reduction in the total number of viable cells.
# COS cells = assay: Inhibition of plasmid replication in cotransfected COS cells expressing HSV1-TK; assay type: cell-based, monkey; conditions: 10 μM drug; for reduction of total plasmid copy number (pSV2CAT) relative to no drug treatment: COS cells cotransfected with pSV2CAT, pApS1 (MTV-HSV1-TK), pRShGR, Dex 10^-7 M, 36 h; for decrease of replication of PRShGR': same cotransfection, similar to pSV2CAT
# Experimental: The possibility was tested that HSVI-TK expressed from a transfected plasmid could metabolize anti-herpetic nucleosides to substrates capable of being metabolized by a cellular DNA polymerase. In principle, the incorporation of these activated drugs should lead to a net decrease in cellular DNA replication. Accordingly, a plasmid capable of replicating in COS cells [monkey kidney cells which express T antigen (Tag); See Gluzman, Y. in Cell, 23:175-182 (1981)], namely pSV2CAT (See FIG. 1a; a plasmid that contains the Simian virus 40 promoter region linked to the chloramphenicol acetyltransferase (CAT) gene; See Gorman, et al. in Mol. Cell. Biol., 2:1044-1051(1982)) was cotransfected with a plasmid, pApSI (a plasmid that contains the mouse mammary tumor virus long terminal repeat (MTV-LTR) linked to the HSV1-TK gene; See Chandler, et al., in Cell, 33:489-499 (1983)), expressing HSV1-TK gene under the control of the glucocorticoid inducible promoter of the mouse mammary tumor virus (MTV) (see FIG. 1a). Here, the expression of TK is dependent on both the presence of glucocorticoids, such as the synthetic dexamethasone (Dex), and the glucocorticoid receptor which activate the MTV-promoter in the presence of Dex. For this reason, a human glucocorticoid receptor (hGR) expression vector, PRShGR' (a human glucocorticoid receptor (hGR) expression vector that contains the Rous sarcoma virus long terminal repeat (RSV-LTR) linked to the human glucocorticoid receptor; See Giguere, et al., in Cell, 46:645-652 (1986)), was also cotransfected to insure high levels of this transacting factor. PRShGR' itself contains the origin of replication of SV40 and therefore is able to replicate in COS cells.
# Semi-confluent COS cells were cotransfected by the calcium phosphate technique (See Graham, F. L. and van der Eb, A. J., Virology, 52:456-467 (1973) with 1 μg of pSV2CAT, 5 μg of pApS1 and 1 μg of pRShGR' and analyzed 36 hours later. The effect of ACV or FIAU on the replication of pSV2CAT was monitored by the reduction in the number of molecules of this plasmid as compared to a similar experiment conducted in the absence of these drugs. The cells were grown in Dulbecco media containing 5% FCS. Before each experiment, Dex, at a concentration of 10^−7 M, was added. Where the nucleoside analogs were tested, either ACV or FIAU was added to the media at a concentration of 10 μM. When the cells were trypsinized and washed after 24 hours, and then replaced, the new media contained the same concentration of Dex and ACV or FIAU as before. 12 hours later the cells were harvested and plasmid DNA was recovered. The plasmids were recovered from the transfected cells by the method of Hirt (see J. Mol. Biol., 26:365-269 (1967)). […]
# spleen and thymus = assay: FIAU cell killing in KHTK transgenic mice (miniosmotic pump); assay type: in vivo, mouse
# Experimental: Furthermore, to test if the protein was biologically active, a TK assay [See Fyfe et al., J. Biol. Chem. 253:8721-8727 (1978)] was performed on extracts from these tissues. […] To evaluate the efficacy of the system in vivo, an experiment was performed in which transgenic and non-transgenic littermates were implanted subcutaneously with a miniosmotic pump (model 2002, Alzet, Alza Corp., Palo Alto, Calif.). Transgenic and nontransgenic littermates were then treated for one week with a 50 mg/ml solution of FIAU in PBS released by the Miniosmotic pump. FIAU was chosen because it was most efficient in blocking the DNA replication in vitro. The dose was calculated to obtain serum levels of the drug shown to be effective in cell culture. The animals were sacrificed one week after the pump was implanted. […] In the transgenic mouse, most organs were also normal with the dramatic exception of the spleen and thymus which were visually atrophied.
# [2] = transgenic mouse, 50 mg/ml FIAU in PBS by miniosmotic pump, one week
SMILES,"cell death ([1]; 3.0 μM ACV, 3B cells in the presence of Dex, 72 h) [%]","cell death ([1]; 10 μM ACV, 3B cells in the presence of Dex) [%]",toxicity independent of the presence or absence of Dex ([1]; 100 μM ACV),"cell death ([1]; 100 μM ACV, 3B cells in the presence of Dex) [%]","effect on number of viable cells ([1]; 0.1 to 1.0 μM, 72 h)",reduction of total plasmid copy number (pSV2CAT) relative to no drug treatment (COS cells) [%],decrease of replication of PRShGR' (COS cells) [%],reduction of viability ([1]; 0.1 μM FIAU),"cell death ([1]; 3.0 μM FIAU, in the absence of severe non-specific toxicity) [%]","autopsy findings in control mouse (spleen and thymus; nontransgenic littermate, one week of FIAU treatment)",reduction of the cell number in the spleen (spleen and thymus; [2]) [%],reduction of the cell number in the thymus (spleen and thymus; [2]) [%]
"Nc1nc2c(ncn2COCCO)c(=O)[nH]1 [ACV, 9-[(2-hydroxyethoxy)methyl]guanine]",20,60,non-specific toxicity,98,no effect,40,40,,,,,
"O=c1[nH]c(=O)n([C@H]2O[C@H](CO)[C@@H](O)[C@@H]2F)cc1I [FIAU, 1-(2-deoxy-2-fluoro-a-D-arabinofuranosil)-5-iodouracil]",,,,,,70,70,more than 60%,98,no apparent toxic effects,57,83
